From patent US10822337B2, “TGF-β inhibitorC” (Rigel Pharmaceuticals, Inc., priority 2015, dated 2020)

Legend:
[1] = system: GDF8 signaling (GDF pSMAD, MPC11); assay: AlphaScreen SureFire SMAD3 (p-Ser423/425) assay, inhibition of GDF8 signaling; type: cell-based; conditions: Mus musculus, MPC-11, p-SMAD-3 (Ser423/425) in cell lysate after GDF8 stimulation
[2] = system: TGF-β signaling (TGF-β pSMAD, MPC-11); assay: AlphaScreen SureFire SMAD3 (p-Ser423/425) assay, inhibition of TGF-β signaling; type: cell-based; conditions: Mus musculus, p-SMAD-3 (Ser423/425) in cell lysate after TGF-β stimulation
Method in brief: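 Phosphorylation of endogenous SMAD-3 at Ser423/425 was quantified with an AlphaScreen SureFire assay. Cells were exposed to compound for about 10 minutes, stimulated with TGF-β, and lysed in 1× Lysis Buffer. Lysate (5 μL) was combined with Reaction/Activation buffer plus Acceptor beads for 2 hours, then Donor beads for 1½ hours, and read on a plate reader.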

Row | SMILES | IC50 [1] [nM] | IC50 [2] [nM]
1 | Fc1ccc(-c2nn3c(c2-c2ccc4nccn4c2)CCC3)c(F)c1 [Compound 94, 6-(2-(2,4-Difluorophenyl)-5,6-dihydro-4H-pyrrolo[1,2-b]pyrazol-3-yl)imidazo[1,2-a]pyridine] | 77 | 482
2 | COc1cccc(-c2nn3c(c2-c2ccc4nccn4c2)CCC3)c1 [Compound 21, 6-(2-(3-Methoxyphenyl)-5,6-dihydro-4H-pyrrolo[1,2-b]pyrazol-3-yl)imidazo[1,2-a]pyridine] | 310 | 1040
3 | Fc1ccc(-c2nn3c(c2-c2ccc4ncsc4c2)OCC3)cc1 [Compound 68, 7-(Benzo[d]thiazol-6-yl)-6-(4-fluorophenyl)-2,3-dihydropyrazolo[5,1-b]oxazole] | 332 | 1100
4 | Fc1ccccc1-c1nn2c(c1-c1ccc3ncsc3c1)CCC2 [Compound 201, 6-(2-(2-fluorophenyl)-5,6-dihydro-4H-pyrrolo[1,2-b]pyrazol-3-yl)benzo[d]thiazole] | 225 | 1460
5 | FC(F)(F)c1cccc(-c2nn3c(c2-c2ccc4cn[nH]c4c2)CCC3)c1 [Compound 32, 6-(2-(3-Trifluoromethylphenyl)-5,6-dihydro-4H-pyrrolo[1,2-b]pyrazol-3-yl)-1H-indazole] | 45.1 | 292
6 | Cc1cccc(-c2nn3c(c2-c2ccc4nccn4c2)OCCC3)c1 [Compound 42, 3-(Imidazo[1,2-a]pyridin-6-yl)-2-(m-tolyl)-6,7-dihydro-5H-pyrazolo[5,1-b][1,3]oxazine] | 112 | 331
7 | Cc1cccc(-c2nn3c(c2-c2ccc4[nH]ncc4c2)CCC3)c1 [Compound 7, 5-(2-(m-Tolyl)-5,6-dihydro-4H-pyrrolo[1,2-b]pyrazol-3-yl)-1H-indazole] | 15.1 | 39.7
8 | COc1ccc(-c2nn3c(c2-c2ccc4[nH]ncc4c2)CCC3)cc1 [Compound 98, 5-(2-(4-Methoxyphenyl)-5,6-dihydro-4H-pyrrolo[1,2-b]pyrazol-3-yl)-1H-indazole] | 295 | 984
9 | Cc1cc(-c2nn3c(c2-c2ccnc4[nH]ccc24)CCC3)ccc1F [Compound 4, 4-(2-(4-Fluoro-3-methylphenyl)-5,6-dihydro-4H-pyrrolo[1,2-b]pyrazol-3-yl)-1H-pyrrolo[2,3-b]pyridine] | 604 | 1050
10 | Cc1cccc(-c2nn3c(c2-c2ccc4[nH]ncc4c2)OCC3)c1 [Compound 36, 7-(1H-Indazol-5-yl)-6-(m-tolyl)-2,3-dihydropyrazolo[5,1-b]oxazole] | 104 | 526
11 | Clc1cccc(-c2nn3c(c2-c2ccc4[nH]ncc4c2)CCC3)c1 [Compound 22, 5-(2-(3-Chlorophenyl)-5,6-dihydro-4H-pyrrolo[1,2-b]pyrazol-3-yl)-1H-indazole] | 92.5 | 183
12 | Fc1ccc(-c2nn3c(c2-c2ccc4nccn4c2)OCC3)cc1 [Compound 67, 6-(4-Fluorophenyl)-7-(imidazo[1,2-a]pyridin-6-yl)-2,3-dihydropyrazolo[5,1-b]oxazole] | 331 | 2640
13 | Fc1ccc(-c2nn3c(c2-c2ccc4cn[nH]c4c2)CCC3)c(F)c1F [Compound 129, 6-(2-(2,3,4-Trifluorophenyl)-5,6-dihydro-4H-pyrrolo[1,2-b]pyrazol-3-yl)-1H-indazole] | 346 | 1640
14 | Clc1cccc(-c2nn3c(c2-c2ccc4cn[nH]c4c2)CCC3)c1 [Compound 23, 6-(2-(3-Chlorophenyl)-5,6-dihydro-4H-pyrrolo[1,2-b]pyrazol-3-yl)-1H-indazole] | 122 | 240
15 | Cc1cccc(-c2nn3c(c2-c2ccc4nccn4c2)OCC3)c1 [Compound 44, 7-(imidazo[1,2-a]pyridin-6-yl)-6-(m-tolyl)-2,3-dihydropyrazolo[5,1-b]oxazole] | 23.3 | 106
16 | Fc1ccc(Cl)cc1-c1nn2c(c1-c1ccc3cn[nH]c3c1)CCC2 [Compound 174, 6-(2-(5-Chloro-2-fluorophenyl)-5,6-dihydro-4H-pyrrolo[1,2-b]pyrazol-3-yl)-1H-indazole] | 36.7 | 153
17 | COc1cccc(-c2nn3c(c2-c2ccc4ncccc4c2)OCC3)c1 [Compound 75, 6-(3-Methoxyphenyl)-7-(quinolin-6-yl)-2,3-dihydropyrazolo[5,1-b]oxazole] | 1240 | 7240

Further lines, results first:

Row | IC50 [1] [nM] | IC50 [2] [nM] | SMILES
18 | 1060 | 9580 | Fc1ccc(-c2nn3c(c2-c2ccc4ncccc4c2)CCC3)cc1F [Compound 88, 6-(2-(3,4-Difluorophenyl)-5,6-dihydro-4H-pyrrolo[1,2-b]pyrazol-3-yl)quinoline]
19 | 234 | 1510 | Cc1cccc(-c2nn3c(c2-c2ccc4ncccc4c2)CCC3)c1 [Compound 46, 6-(2-(m-Tolyl)-5,6-dihydro-4H-pyrrolo[1,2-b]pyrazol-3-yl)quinoline]
20 | 473 | 4190 | FC(F)(F)c1cccc(-c2nn3c(c2-c2ccc4ncccc4c2)CCC3)c1 [Compound 50, 6-(2-(3-Trifluoromethylphenyl)-5,6-dihydro-4H-pyrrolo[1,2-b]pyrazol-3-yl)quinoline]
21 | 78.7 | 376 | Fc1ccc(F)c(-c2nn3c(c2-c2ccc4ncsc4c2)CCC3)c1 [Compound 195, 6-(2-(2,5-Difluorophenyl)-5,6-dihydro-4H-pyrrolo[1,2-b]pyrazol-3-yl)benzo[d]thiazole]
22 | 59 | 608 | Fc1ccc(F)c(-c2nn3c(c2-c2ccc4nccnc4c2)CCC3)c1 [Compound 197, 6-(2-(2,5-Difluorophenyl)-5,6-dihydro-4H-pyrrolo[1,2-b]pyrazol-3-yl)quinoxaline]
23 | 45 | 140 | Cc1cc(-c2nn3c(c2-c2ccc4[nH]ncc4c2)CCC3)ccc1F [Compound 2, 5-(2-(4-Fluoro-3-methylphenyl)-5,6-dihydro-4H-pyrrolo[1,2-b]pyrazol-3-yl)-1H-indazole]
24 | 463 | 1640 | Cc1cc(-c2nn3c(c2-c2ccc4ncccc4c2)CCC3)c(F)cc1F [Compound 183, 6-(2-(2,4-Difluoro-5-methylphenyl)-5,6-dihydro-4H-pyrrolo[1,2-b]pyrazol-3-yl)quinoline]
25 | 51.5 | 152 | Cc1cc(-c2nn3c(c2-c2ccc4nc[nH]c4c2)CCC3)ccc1F [Compound 9, 6-(2-(4-Fluoro-3-methylphenyl)-5,6-dihydro-4H-pyrrolo[1,2-b]pyrazol-3-yl)-1H-benzo[d]imidazole]
26 | 613 | 2360 | Fc1ccccc1-c1nn2c(c1-c1ccc3nccnc3c1)CCC2 [Compound 136, 6-(2-(2-Fluorophenyl)-5,6-dihydro-4H-pyrrolo[1,2-b]pyrazol-3-yl)quinoxaline]
27 | 987 | 2740 | Cc1cc(-c2nn3c(c2-c2ccc4c(cnn4C)c2)CCC3)ccc1F [Compound 15, 5-(2-(4-Fluoro-3-methylphenyl)-5,6-dihydro-4H-pyrrolo[1,2-b]pyrazol-3-yl)-1-methyl-1H-indazole]
28 | 1040 | 2730 | Fc1ccc(-c2nn3c(c2-c2ccc4ncccc4c2)CCC3)cc1Cl [Compound 146, 6-(2-(3-Chloro-4-fluorophenyl)-5,6-dihydro-4H-pyrrolo[1,2-b]pyrazol-3-yl)quinoline]
29 | 375 | 1870 | Fc1cccc(-c2nn3c(c2-c2ccc4ncsc4c2)CCC3)c1 [Compound 81, 6-(2-(3-Fluorophenyl)-5,6-dihydro-4H-pyrrolo[1,2-b]pyrazol-3-yl)benzo[d]thiazole]
30 | 910 | 2340 | Fc1ccc(-c2nn3c(c2-c2ccc4nccnc4c2)CCC3)c(F)c1F [Compound 132, 6-(2-(2,3,4-Trifluorophenyl)-5,6-dihydro-4H-pyrrolo[1,2-b]pyrazol-3-yl)quinoxaline]
31 | 272 | 926 | Fc1ccc(-c2nn3c(c2-c2ccc4nccn4c2)CCC3)cc1F [Compound 86, 6-(2-(3,4-Difluorophenyl)-5,6-dihydro-4H-pyrrolo[1,2-b]pyrazol-3-yl)imidazo[1,2-a]pyridine]
